According to patent US7754727B2, “4-phenylpiperidine derivatives as renin inhibitors” (Novartis AG, priority 2003, dated 2010):
Structures can show the parent of a compound that is named as a salt.

Target: T1, Recombinant human renin (Homo sapiens, UniProt P00797)
T1 construct: made in house; host or cells: Chinese Hamster Ovary cells
T1 sequence (P00797 67-406): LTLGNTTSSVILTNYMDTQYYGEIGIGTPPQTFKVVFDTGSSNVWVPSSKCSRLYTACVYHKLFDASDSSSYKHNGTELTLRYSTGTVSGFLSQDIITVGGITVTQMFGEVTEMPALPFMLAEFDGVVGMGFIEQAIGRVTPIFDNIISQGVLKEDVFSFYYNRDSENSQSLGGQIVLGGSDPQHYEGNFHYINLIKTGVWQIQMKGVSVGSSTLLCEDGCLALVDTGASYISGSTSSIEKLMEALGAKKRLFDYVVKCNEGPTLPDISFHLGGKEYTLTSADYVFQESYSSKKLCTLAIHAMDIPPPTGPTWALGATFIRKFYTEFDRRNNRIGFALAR
Experiment: FRET assay of inhibition of renin activity
Assay type: biochemical
Details: recombinant human renin 4 nM, 1 h at RT, pH 7.4
Procedure: Recombinant human renin (expressed in Chinese Hamster Ovary cells and purified using standard methods) at 4 nM concentration is incubated with test compound at various concentrations for 1 h at RT in 0.1 M Tris-HCl buffer, pH 7.4, containing 0.05 M NaCl, 0.5 mM EDTA and 0.05% CHAPS. Synthetic peptide substrate Arg-Glu(EDANS)-Ile-His-Pro-Phe-His-Leu-Val-Ile_His_Thr-Lys(DABCYL)-Arg9 is added to a final concentration of 2 μM and increase in fluorescence is recorded at an excitation wave-length of 340 nm and at an emission wave-length of 485 nm in a microplate spectro-fluorimeter. IC50 values are calculated from percentage of inhibition of renin activity as a function of test compound concentration (Fluorescence Resonance Energy Transfer, FRET, assay).

c1ccc(-c2cccc([C@H]3CCNC[C@@H]3OCc3ccc4ccccc4c3)c2)cc1 (relative stereo) [Example 1, (3R*,4R*)-4-Biphenyl-3-yl-3-(naphthalen-2-ylmethoxy)-piperidine hydrochloride]
IC50: ~70 nM
